Like-named read-outs stand apart in the source and are kept apart here.
Experiments:
[1] = system: K562 cells; assay: K562 cell proliferation assay (CellTiter-Glo); type: cell-based; settings: CellTiter-Glo viability, read-out: Cell Line (IC50, nM) K562
Description: (§1) K562 and HL60 cells, cultured in Iscove's Modified Dulbecco's Media (IMDM) supplemented with 10% FBS, were harvested at 50-80% confluency and plated at 2,000 cells per well (K562) or 1,500 cells per well (HL60) in 384-well tissue culture plates. A subset of wells contained media only (low control, LC). Compounds were serially diluted in DMSO. 40 nL of compound or DMSO only (high control, HC) were added to each well using an Echo 550 liquid handler (Labcyte). The plates were placed in a 37° C. incubator with 5% CO2 for 72 hours. Cell viability was measured using a CellTiter-Glo luminescent cell viability assay (Promega), which allows for relative quantification of metabolically active cells by luminescence-based measurements of intracellular ATP concentrations. Briefly, plates were removed from the incubator and equilibrated for 15 minutes at room temperature prior to the addition of 40 μL of CellTiter-Glo reagent. Plates were then incubated for 30 minutes at room temperature. Luminescence was measured using an EnSpire plate reader (Perkin Elmer). As noted above, luminescence values from wells with DMSO only or media without cells were used as high and low controls (HC and LC), respectively. Normalized percent viability was calculated as follows: percent viability=100×(Lumsample−LumLC)/(LumHC−LumLC).

[2] = system: HL60 cells; assay: HL60 cell proliferation assay (CellTiter-Glo); type: cell-based; settings: CellTiter-Glo viability, read-out: Cell Line (IC50, nM) HL60
Description: as §1

[3] = target: T1, ABL1 (Homo sapiens, UniProt P00519); assay: Luminescence-based ABL kinase assay (ADP-Glo, 300 μM ATP); type: biochemical
T1 construct: purchased Carna Biosciences
Description: (§2) Kinase activity of ABL1 was measured using the ADP-Glo system (Promega), which measures formation of ADP using a luminescence-based method. Compounds were serially diluted in DMSO. 20 nL of compound or DMSO only (high control, HC) were added to a 384-well plate (OptiPlate-384, PerkinElmer) using an Echo550 liquid handler (Labcyte). 15 μL of kinase solution (10 mM MgCl2, 0.01% Brij-35, 2 mM DTT, 0.05% BSA, 1 mM EGTA, 50 mM HEPES pH 7.5, and 3.325 nM ABL1 [Carna Biosciences]) were added to each well of the 384-well plate containing the compounds. No enzyme control wells were included (low control, LC). The plate was incubated at room temperature for 30 minutes. 5 μL of a second solution containing 10 mM MgCl2, 0.01% Brij-35, 2 mM DTT, 0.05% BSA, 1 mM EGTA, 50 mM HEPES pH 7.5, 6 μM Peptide 2 (Perkin Elmer, Cat No 760346), and 1.2 mM ATP were added to each well to start the kinase reaction. The plate was incubated for 90 minutes at room temperature. 20 μL of ADP-Glo reagent (Promega) were then added to each well and the plate was incubated for 40 minutes at room temperature. 40 μL of kinase detection reagent (Promega) was added to each well and the plate was incubated for an additional 45 minutes at room temperature. During this step, ADP was converted to ATP, a substrate for luciferase, to produce luminescence signal. Luminescence was measured on an Envision plate reader (Perkin Elmer). Luminescence signal positively correlates with kinase activity. The percent kinase activity was calculated as follows: percent kinase activity=100×(Lumsample−LumLC)/(LumHC−LumLC). As noted above, DMSO only and no enzyme wells were used as high and low controls, respectively. IC50 values were calculated using the XLFit software.

[4] = target: ABL1 (T315I) (Homo sapiens, UniProt P00519, T315I); assay: Luminescence-based ABL kinase assay (ADP-Glo, 300 μM ATP), T315I mutant; type: biochemical
Description: as §2

Row | IC50 ([1]; Homo sapiens, K562, 72 h) | IC50 ([2]; Homo sapiens, HL-60, 72 h) | IC50 [3] | IC50 [4] | IC50 ([1]; 72 hours) | IC50 ([2]; 72 hours) | Compound
1 | 292 nM | 334 nM | 48 nM | 55.2 nM |  |  | O=C(Nc1ccc2c(-c3ccc4nccn4c3)c[nH]c2n1)[C@@H]1C[C@@H]1F [Compound 71, (1S,2S)-2-fluoro-N-(3-[imidazo[1,2-a]pyridin-6-yl]-1H-pyrrolo[2,3-b]pyridin-6-yl)cyclopropane-1-carboxamide]
2 | 654 nM | > 10000 nM | 106 nM | 26.8 nM |  |  | COc1ccccc1-c1c[nH]c2nc(NC(=O)[C@@H]3C[C@@H]3CN3CCN(C)CC3)ccc12 (racemic) [Compound 41, cis-N-[3-(2-methoxyphenyl)-1H-pyrrolo[2,3-b]pyridin-6-yl]-2-[(4-methylpiperazin-1-yl)methyl]cyclopropane-1-carboxamide]
3 | 421 nM | > 10000 nM | 78.9 nM | 7.17 nM |  |  | COc1cccc(F)c1-c1c[nH]c2nc(NC(=O)[C@H]3C[C@H]3F)ccc12 [Compound 22, (1R,2R)-2-fluoro-N-[3-(2-fluoro-6-methoxyphenyl)-1H-pyrrolo[2,3-b]pyridin-6-yl]cyclopropane-1-carboxamide]
4 | 94.8 nM | > 10000 nM | 17.8 nM | 139 nM |  |  | COc1cccc(OC)c1-c1n[nH]c2nc(NC(=O)[C@@H]3C[C@@H]3F)ccc12 [Compound 78, (1S,2S)—N-(3-(2,6-dimethoxyphenyl)-1H-pyrazolo[3,4-b]pyridin-6-yl)-2-fluorocyclopropane-1-carboxamide]
5 | 321 nM | > 10000 nM | 14.3 nM | 151 nM |  |  | COc1cc2ncnn2cc1-c1c[nH]c2nc(NC(=O)[C@@H]3C[C@@H]3F)ccc12 [Compound 111, (1S,2S)-2-fluoro-N-(3-(7-methoxy-[1,2,4]triazolo[1,5-a]pyridin-6-yl)-1H-pyrrolo[2,3-b]pyridin-6-yl)cyclopropane-1-carboxamide]
6 | 5170 nM | > 10000 nM | 218 nM | 417 nM |  |  | COc1nc2cn[nH]c2cc1-c1c[nH]c2nc(NC(=O)C3CC3)ccc12 [Compound 60, N-(3-[5-methoxy-1H-pyrazolo[4,3-b]pyridin-6-yl]-1H-pyrrolo[2,3-b]pyridin-6-yl)cyclopropanecarboxamide]
7 | 779 nM | > 10000 nM | 91.1 nM | 15.6 nM |  |  | COc1ccccc1-c1c[nH]c2nc(NC(=O)NCCN3CCOCC3)ccc12 [Compound 43, 3-[3-(2-methoxyphenyl)-1H-pyrrolo[2,3-b]pyridin-6-yl]-1-[2-(morpholin-4-yl)ethyl]urea]
8 | 733 nM | > 10000 nM | 36 nM | 40.6 nM |  |  | COc1ccnc(OC)c1-c1c[nH]c2nc(NC(=O)NCCN3CCNCC3)ccc12 [Compound 137, 3-[3-(2,4-dimethoxypyridin-3-yl)-1H-pyrrolo[2,3-b]pyridin-6-yl]-1-[2-(piperazin-1-yl)ethyl]urea]
9 |  |  | 15 nM | 20.9 nM | 55.3 nM |  | COc1cccc(OC)c1-c1c[nH]c2nc(NC(=O)C3CC3CCN(C)C)ccc12 (single isomer, unassigned) [Example S205, Enantiomer 2, N-(3-(2,6-dimethoxyphenyl)-1H-pyrrolo[2,3-b]pyridin-6-yl)-2-(2-(dimethylamino)ethyl)cyclopropane-1-carboxamide]
10 |  |  | 10.6 nM | 15 nM | 21.5 nM |  | COc1cccc(OC)c1-c1c[nH]c2nc(NC(=O)C3CC3CCN(C)C)ccc12 (single isomer, unassigned) [Example S205, Enantiomer 1, N-(3-(2,6-dimethoxyphenyl)-1H-pyrrolo[2,3-b]pyridin-6-yl)-2-(2-(dimethylamino)ethyl)cyclopropane-1-carboxamide]
11 |  |  |  |  | 57.3 nM | > 10000 nM | COc1nccc(OC2CC2)c1-c1c[nH]c2nc(NC(=O)C3CC3OCCN(C)C)ccc12 (single isomer, unassigned) [Example S220, Enantiomer 2, N-(3-(4-cyclopropoxy-2-methoxypyridin-3-yl)-1H-pyrrolo[2,3-b]pyridin-6-yl)-2-(2-(dimethylamino)ethoxy)cyclopropane-1-carboxamide]
12 | 52.7 nM | > 10000 nM |  |  |  |  | COc1cccc(OC)c1-c1c[nH]c2nc(NC(=O)C3CC3)ccc12 [Compound 45, N-[3-(2,6-dimethoxyphenyl)-1H-pyrrolo[2,3-b]pyridin-6-yl]cyclopropanecarboxamide]
13 |  |  |  |  | 39.7 nM | 8660 nM | COc1nccc(OC2CC2)c1-c1c[nH]c2nc(NC(=O)C3CC3OCCN3CCC3)ccc12 (single isomer, unassigned) [Example S221, Enantiomer 2, 2-(2-(azetidin-1-yl)ethoxy)-N-(3-(4-cyclopropoxy-2-methoxypyridin-3-yl)-1H-pyrrolo[2,3-b]pyridin-6-yl)cyclopropane-1-carboxamide]
14 |  | 6590 nM |  |  | 11.1 nM |  | COc1nccc(OC2CC2)c1-c1c[nH]c2nc(NC(=O)C3CC3OCCN3CCC3)ccc12 (single isomer, unassigned) [Example S221, Enantiomer 1, 2-(2-(azetidin-1-yl)ethoxy)-N-(3-(4-cyclopropoxy-2-methoxypyridin-3-yl)-1H-pyrrolo[2,3-b]pyridin-6-yl)cyclopropane-1-carboxamide]
15 | 32 nM | > 10000 nM |  |  |  |  | COc1nc2[nH]ncc2cc1-c1c[nH]c2nc(NC(=O)[C@@H]3C[C@@H]3F)ccc12 [Compound 144, (1S,2S)-2-fluoro-N-(3-[6-methoxy-1H-pyrazolo[3,4-b]pyridin-5-yl]-1H-pyrrolo[2,3-b]pyridin-6-yl)cyclopropane-1-carboxamide]
16 |  | > 10000 nM |  |  | 24.9 nM |  | COc1nccc(OC2CC2)c1-c1c[nH]c2nc(NC(=O)C3CC3OCCN(C)C)ccc12 (single isomer, unassigned) [Example S220, Enantiomer 1, N-(3-(4-cyclopropoxy-2-methoxypyridin-3-yl)-1H-pyrrolo[2,3-b]pyridin-6-yl)-2-(2-(dimethylamino)ethoxy)cyclopropane-1-carboxamide]
17 |  |  | 30.6 nM | 82.5 nM |  |  | COc1cc2scnc2cc1-c1c[nH]c2nc(NC(=O)NCCN3CCNCC3)ccc12 [Compound 140, 3-[3-(6-methoxy-1,3-benzothiazol-5-yl)-1H-pyrrolo[2,3-b]pyridin-6-yl]-1-[2-(piperazin-1-yl)ethyl]urea]
18 |  |  | 8.62 nM | 11 nM |  |  | COc1cc2cn[nH]c2cc1-c1c[nH]c2nc(NC(=O)[C@H]3C[C@H]3F)ccc12 [Compound 59, (1R,2R)-2-fluoro-N-[3-(5-methoxy-1H-indazol-6-yl)-1H-pyrrolo[2,3-b]pyridin-6-yl]cyclopropane-1-carboxamide]
19 |  |  | 45.5 nM | 31.2 nM |  |  | COc1nc2[nH]ccc2cc1-c1c[nH]c2nc(NC(=O)[C@H]3C[C@@H]3F)ccc12 [Compound 141, (1R,2S)-2-fluoro-N-(6′-methoxy-1H,1′H-[3,5′-bipyrrolo[2,3-b]pyridin]-6-yl)cyclopropane-1-carboxamide]
20 |  |  | 114 nM | 1030 nM |  |  | O=C(Nc1ccc2c(-c3ccn4ccnc4c3)c[nH]c2n1)C1CC1 [Compound 55, N-(3-[imidazo[1,2-a]pyridin-7-yl]-1H-pyrrolo[2,3-b]pyridin-6-yl)cyclopropanecarboxamide]
21 |  |  | 158 nM | 8700 nM |  |  | CN(C)c1ncccc1-c1c[nH]c2nc(NC(=O)C3CC3)ccc12 [Compound 65, N-(3-(2-(dimethylamino)pyridin-3-yl)-1H-pyrrolo[2,3-b]pyridin-6-yl)cyclopropanecarboxamide]

Source: patent US20240043420A1, “7-AZAINDOLE COMPOUNDS FOR INHIBITION OF BCR-ABL TYROSINE KINASES” (EnLiven Therapeutics, Inc., priority 2020, published 2024)
